Experimental data as given in US20220395553A1, “CXCR4 ANTAGONIST PEPTIDES” (COHBAR, INC., priority 2019, published 2022).
Square brackets hold non-standard residues; d marks the D form. Peptide text beside a SMILES is read from it.

Tests used:
human CXCR4 = human CXCR4 (Homo sapiens, UniProt P61073); experiment: IC50 for inhibition of CXCR4 activation, β-Arrestin recruitment (Example 22); type: cell-based; parameters: host or cells: C2C12 (mouse myoblast) CXCR4 β-Arrestin PathHunter cell line
Outline: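 C2C12 cells co-expressing ProLink-tagged human CXCR4 and Enzyme Acceptor-tagged β-arrestin (PathHunter). Peptides tested in 10-point, 3-fold dilutions from 1 μM (1 μM–0.05 nM). Recruitment read by chemiluminescent enzyme-fragment complementation after 90 min incubation.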

[1] = tested on: CXCR4/CXCL12 induced p-MEK; experiment: CXCR4/CXCL12 induced p-MEK in Jurkat cells (ELISA); type: cell-based, human; conditions: 5 nM CXCL12, 5 min
Outline: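 Jurkat cells in RPMI+GlutaMax containing 10% FBS and 1% penicillin/streptomycin, fresh or conditioned, were resuspended at 2×10^6 cells/ml and […] aliquots placed in tubes. After a 5 min stimulation they were pelleted, rinsed with HBSS and lysed with PMSF and protease/phosphatase inhibitors. Phospho-MEK1 (Ser217/221) was quantified by sandwich ELISA with absorbance read at 450 nm.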

Rat H-4-II-E Cells = experiment: TBHP-induced reactive oxygen species (DCFDA); type: cell-based; conditions: peptide 10 μM 18-20 hours, then TBHP 100 μM 1 hour; relative to TBHP control
Protocol: The protective or synergistic effect of the peptides on cellular levels of reactive oxygen species (ROS) induced by oxidative stress can be assessed using an assay of ROS in cultured cells exposed to a suitable oxidative stress. Peptides were initially prepared as 10 mM stock in DMSO and tested at a final concentration of 10 μM (0.1% DMSO). […] TBHP was used at final concentration of […]. Sulforaphane was used at a final concentration of 10 uM as a protective antioxidant control against TBHP induced ROS production. DCFDA Cellular ROS Detection Assay kit was purchased from […]. H-4-II-E rat liver hepatoma cell line was purchased from American Type Culture Collection (Manassas, Va.). H-4-II-E cells were grown in DMEM supplemented with 10% FBS with 100 IU/ml penicillin and 100 μg/ml streptomycin. Cultures were maintained at 37° C. in a humidified atmosphere of 5% CO2/95% air. H-4-II-E cells were seeded at 15,000-20,000 cells per well on 96-well plates. The next day cells were incubated with test peptides at 10 μM in 0.1% DMSO or sulforaphane at 10 uM and maintained at 37° C. in a humidified atmosphere of 5% CO2/95% air for 18-20 hours. After 18-20 hours of incubation the cells were loaded with DCFDA for 45 min. TBHP at 100 μM was then added to the appropriate wells for 1 hour. ROS activity was determined using a DCFDA Cellular ROS Detection Assay kit (Abcam) according to the manufacturer's instructions. Fluorescence in each sample well on the plate was measured using a Cytation 3 plate reader at Ex/Em=485/535 nm (BioTek, Winooski, Vt.). Activity was calculated relative to TBHP control. […] Activity was calculated relative to THBP treated control.

[2] = tested on: SH-SY5Y Neuroblastoma Cells; experiment: ATP levels in cells exposed to staurosporine; type: cell-based, human; conditions: peptide 10 μM plus staurosporine, 18-20 hours; <100% cytoprotective, >100% synergistic
Protocol: Peptides were initially prepared as 10 mM stock in DMSO and tested at a final concentration of 10 μM (0.1% DMSO).
[…] CellTiter-Glo® Assay kit was purchased from Promega. SH-SY5Y human neuroblastoma cell line was purchased from American Type Culture Collection (Manassas, Va.) and licensed from Memorial Sloan-Kettering Cancer Center (New York, N.Y.). SH-SY5Y cells were grown in DMEM/F12 medium supplemented with 10% FBS with 100 IU/ml penicillin and 100 μg/ml streptomycin. Cultures were maintained at 37° C. in a humidified atmosphere of 5% CO2/95% air. SH-SY5Y cells were seeded at 30,000 cells per well on 96-well plates. […] ATP levels were determined using a CellTiter-Glo Assay kit (Promega) according to the manufacturer's instructions. Luminescence for each sample well on the plate was measured using a Cytation 3 plate reader (BioTek, Winooski, Vt.). […] A value less than 100% is indicative of a cytoprotective effect, while a value greater than 100% is indicative of a synergistic effect on viability.

human CXCR4, sequence (P61073 whole entry, the tested form may be a part): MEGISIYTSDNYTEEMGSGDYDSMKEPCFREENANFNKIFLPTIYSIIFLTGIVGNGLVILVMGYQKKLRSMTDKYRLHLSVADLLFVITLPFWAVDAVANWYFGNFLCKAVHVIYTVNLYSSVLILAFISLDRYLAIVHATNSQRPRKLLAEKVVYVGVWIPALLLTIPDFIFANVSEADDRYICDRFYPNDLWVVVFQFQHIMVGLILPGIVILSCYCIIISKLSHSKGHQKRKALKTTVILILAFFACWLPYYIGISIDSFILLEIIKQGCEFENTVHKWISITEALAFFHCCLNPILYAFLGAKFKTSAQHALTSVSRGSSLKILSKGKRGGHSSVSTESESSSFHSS

| Compound | IC50 (human CXCR4) | Percent Inhibition of CXCR4/CXCL12 Induced p-MEK (100 nM Test Article) [1] | Percent Inhibition of CXCR4/CXCL12 Induced p-MEK (1 μM Test Article) [1] | TBHP-Induced ROS, Percent of Control (Rat H-4-II-E Cells) | Percent of ATP Reduction Induced by Control [2] |
| --- | --- | --- | --- | --- | --- |
| CSCC[C@H](N)C(=O)N[C@@H](CC(C)C)C(=O)N[C@@H](CCCNC(=N)N)C(=O)N[C@@H](CCCNC(=N)N)C(=O)N[C@@H](Cc1ccc(O)cc1)C(=O)N[C@@H](Cc1c[nH]cn1)C(=O)N[C@@H](Cc1c[nH]cn1)C(=O)N[C@@H](CO)C(=O)N[C@H](C(=O)N[C@@H](CCCNC(=N)N)C(=O)N[C@@H](CO)C(=O)N[C@@H](CO)C(=O)N[C@@H](CC(C)C)C(=O)N[C@@H](CCCNC(=N)N)C(=O)N1CCC[C@H]1C(=O)N[C@@H](Cc1ccc(O)cc1)C(=O)N[C@H](C(=O)N[C@@H](CCCCN)C(=O)O)[C@@H](C)O)C(C)C [compound 2] (H-MLRRYHHSVRSSLRPYTK-OH; N-terminus and C-terminus assumed) | 11 nM | −1% | 28% | 90.9% | 84.5% |
| CC(C)C[C@H](NC(=O)[C@H](CO)NC(=O)[C@H](CO)NC(=O)[C@H](CCCNC(=N)N)NC(=O)[C@@H](NC(=O)[C@H](CO)NC(=O)[C@H](Cc1c[nH]cn1)NC(=O)[C@H](Cc1c[nH]cn1)NC(=O)[C@H](Cc1ccc(O)cc1)NC(=O)[C@H](CCCNC(=N)N)NC(=O)[C@H](CCCNC(=N)N)NC(=O)[C@@H](N)CC(C)C)C(C)C)C(=O)N[C@@H](CCCNC(=N)N)C(=O)N1CCC[C@H]1C(=O)N[C@@H](Cc1ccc(O)cc1)C(=O)N[C@H](C(=O)N[C@@H](CCCCN)C(=O)O)[C@@H](C)O [compound 3] (H-LRRYHHSVRSSLRPYTK-OH; N-terminus and C-terminus assumed) | 5 nM | 29% | 91% | 95.5% | 84.9% |
| CC(C)C[C@H](NC(=O)[C@H](CO)NC(=O)[C@H](CO)NC(=O)[C@H](CCCNC(=N)N)NC(=O)[C@@H](NC(=O)[C@H](CO)NC(=O)[C@H](Cc1c[nH]cn1)NC(=O)[C@H](Cc1c[nH]cn1)NC(=O)[C@H](Cc1ccc(O)cc1)NC(=O)[C@H](CCCNC(=N)N)NC(=O)[C@H](CCC(=O)O)NC(=O)[C@@H](N)CC(C)C)C(C)C)C(=O)N[C@@H](CCCNC(=N)N)C(=O)N1CCC[C@H]1C(=O)N[C@@H](Cc1ccc(O)cc1)C(=O)N[C@H](C(=O)N[C@@H](CCCCN)C(=O)O)[C@@H](C)O [compound 4] (H-LERYHHSVRSSLRPYTK-OH; N-terminus and C-terminus assumed) | 4 nM | 40% | 76% | 95.8% | 77.1% |
| CC(C)C[C@H](NC(=O)[C@H](CO)NC(=O)[C@H](CO)NC(=O)[C@H](CCCNC(=N)N)NC(=O)[C@@H](C)NC(=O)[C@H](CO)NC(=O)[C@H](Cc1c[nH]cn1)NC(=O)[C@H](Cc1c[nH]cn1)NC(=O)[C@H](Cc1ccc(O)cc1)NC(=O)[C@H](CCCNC(=N)N)NC(=O)[C@H](CCC(=O)O)NC(=O)[C@@H](N)CC(C)C)C(=O)N[C@@H](CCCNC(=N)N)C(=O)N1CCC[C@H]1C(=O)N[C@@H](Cc1ccc(O)cc1)C(=O)N[C@H](C(=O)O)[C@@H](C)O [compound 5] (H-LERYHHS[dA]RSSLRPYT-OH; N-terminus and C-terminus assumed) | – | −20% | 24% | 99.2% | 80.0% |
